Source: PMC10349806 (Nature Communications, 2023)
Values joined by “and” are separate entries in the source; they are usually repeats but may differ in a detail not shown here. Equal values may be shown once. Read-outs that look alike come from different tables or passages of the source.

Test system: PfCRT variant E207A
Assay: Drug uptake assay, oocytes expressing E207A
Type: cell-based, Plasmodium falciparum
Conditions: for Km: read-out: KM ± SEM
Procedure: Site-directed mutagenesis of PfCRT^Dd2 was performed as described using the megaprimer method with overlap extension[21],[54]. The primer pairs used are listed in Supplementary Table 6. Please note that a codon-optimized and oocyte-adapted version of PfCRT^Dd2 was used[22] (Supplementary Fig. 16). The resulting DNA fragment was cloned into the SP64T expression vector and verified by sequencing.
Oocytes were obtained as described previously. Briefly, adult (>2 years old) female X. laevis frogs (NASCO) were anesthetized in a cooled solution of ethyl 3-amino benzoate methanesulfonate (0.1%, w/v), followed by a surgical removal of parts of the ovary. The ovary lobes were carefully dissected and small pieces of oocytes were incubated in Ca^2+-free ND96 buffer (96 mM NaCl, 2 mM KCl, 1 mM MgCl2 buffered with 5 mM HEPES/NaOH, pH 7.5) supplemented with collagenase D (0.1%, w/v; Roche), BSA (0.5%, w/v), and 9 mm Na2HPO4 at 18 °C for 14-16 h while gentle shaking. After incubation, the oocytes were carefully washed several times with ND96 buffer (96 mM NaCl, 2 mM KCl, 1.8 mM CaCl2, 1 mM MgCl2 buffered with 5 mM HEPES/NaOH, pH 7.5) supplemented with 100 mg l^−1 gentamycin). Defolliculated and healthy-looking stage V-VI oocytes were manually selected for RNA microinjection. The RNA was generated as following: The codon-optimized sequences of PfCRT variants were cloned into the pSP64T expression vector. After vector linearization using the restriction endonucleases BamHI or SalI (New England Biolabs), transcription was performed using the in vitro SP6 mMessage mMachine Kit (Ambion)[34]. The obtained RNA was kept at −80 °C and diluted with nuclease-free water to a concentration of 0.6 μg μl^−1. Precision-bore glass capillary tubes (3.5-inch glass capillaries; Drummond Scientific Co.) were pulled on a vertical puller (P-87 Flaming/Brown micropipette puller, Sutter Instrument Co.), graduated, and placed on a microinjector (Nanoject II Auto-Nanoliter Injector, Drummond Scientific Co.). 50 nl of nuclease-free water alone (control oocytes) or 50 nl of 0.6 μg μl^−1 RNA were injected under stereomicroscopic control. Injected oocytes were incubated for 46–72 h at 18 °C with twice-daily buffer changes before usage in experiments.
Drug uptake assays were performed as described previously[21],[22],[24],[34]. […] The direction of radio-labeled drug transport is here from the mostly acidic extracellular solution (pH 4.5 or 6.0, as indicated) into the oocyte cytosol (pH ∼ 7.2), which corresponds to the efflux of drug from the acidic digestive vacuole (pH 5.2) into the parasite cytoplasm (pH 7.2). The topology of PfCRT in the oolemma is such that both the N- and C-terminus face the extracellular milieu[3],[22]. In the parasite, the N- and C-terminus face the lumen of the digestive vacuole. […] For determination of the amount of drug uptake for each oocyte, the reaction medium was removed and the oocytes were washed three times with 2 ml of ice-cold ND96 buffer. Each oocyte was individually transferred to a scintillation vial containing 5% sodium dodecyl sulfate (200 μl) for lysis. […] Oocytes that were injected with water instead of RNA were analyzed in parallel, representing the uptake of a drug by diffusion and/or endogenous permeation pathways. The resulting value represents the “background“ level of drug accumulation in oocytes (in-depth discussion in[22]). The specific PfCRT-mediated uptake was determined by subtracting the corresponding background value measured in water-injected oocytes from that of PfCRT-expressing oocytes. In all cases, at least three separate experiments were performed on oocytes from different frogs (biological replicate), and for each condition in an experiment, measurements were made from 10 oocytes per treatment. For pH 5.5, 6.0, and 6.5, ND96 was buffered with 5 mM MES/Tris base.

[1] = 50 µM CQ, 1 h, independent samples

## CCN(CC)CCCC(C)Nc1ccnc2cc(Cl)ccc12 (stereo not drawn) [CQ, chloroquine]
10 µM CQ, pH 4.5, 60 min
  E207A transport activity: 0.59 pmol oocyte-1 h-1 and 0.34 pmol oocyte-1 h-1 and 0.50 pmol oocyte-1 h-1
10 µM CQ, pH 6.0, 60 min
  E207A transport activity: 0.34 pmol oocyte-1 h-1 and 0.28 pmol oocyte-1 h-1 and 0.55 pmol oocyte-1 h-1 and 0.40 pmol oocyte-1 h-1
[1]
  E207A transport activity pH 5.0: 1.89 pmol oocyte-1 h-1 and 1.63 pmol oocyte-1 h-1
  E207A transport activity pH 5.5: 2.56 pmol oocyte-1 h-1 and 1.58 pmol oocyte-1 h-1 and 2.27 pmol oocyte-1 h-1
100 µM CQ, pH 4.5, 60 min
  E207A transport activity: 4.66 pmol oocyte-1 h-1 and 5.17 pmol oocyte-1 h-1 and 4.25 pmol oocyte-1 h-1 and 5.82 pmol oocyte-1 h-1
100 µM CQ, pH 6.0, 60 min
  E207A transport activity: 3.91 pmol oocyte-1 h-1 and 5.58 pmol oocyte-1 h-1 and 5.27 pmol oocyte-1 h-1 and 3.70 pmol oocyte-1 h-1 and 4.07 pmol oocyte-1 h-1 and 4.29 pmol oocyte-1 h-1
200 µM CQ, pH 4.5, 60 min
  E207A transport activity: 7.55 pmol oocyte-1 h-1 and 5.35 pmol oocyte-1 h-1 and 6.95 pmol oocyte-1 h-1 and 5.93 pmol oocyte-1 h-1
200 µM CQ, pH 6.0, 60 min
  E207A transport activity: 5.60 pmol oocyte-1 h-1 and 6.08 pmol oocyte-1 h-1 and 5.00 pmol oocyte-1 h-1 and 8.09 pmol oocyte-1 h-1 and 6.01 pmol oocyte-1 h-1
300 µM CQ, pH 4.5, 60 min
  E207A transport activity: 7.51 pmol oocyte-1 h-1 and 7.97 pmol oocyte-1 h-1 and 7.66 pmol oocyte-1 h-1
300 µM CQ, pH 6.0, 60 min
  E207A transport activity: 7.48 pmol oocyte-1 h-1 and 7.35 pmol oocyte-1 h-1 and 8.15 pmol oocyte-1 h-1 and 7.49 pmol oocyte-1 h-1 and 7.22 pmol oocyte-1 h-1
400 µM CQ, pH 4.5, 60 min
  E207A transport activity: 9.19 pmol oocyte-1 h-1 and 7.30 pmol oocyte-1 h-1 and 9.06 pmol oocyte-1 h-1
400 µM CQ, pH 6.0, 60 min
  E207A transport activity: 7.35 pmol oocyte-1 h-1 and 7.71 pmol oocyte-1 h-1 and 9.99 pmol oocyte-1 h-1 and 6.32 pmol oocyte-1 h-1 and 7.81 pmol oocyte-1 h-1
500 µM CQ, pH 4.5, 60 min
  E207A transport activity: 6.87 pmol oocyte-1 h-1 and 8.11 pmol oocyte-1 h-1 and 8.95 pmol oocyte-1 h-1 and 9.82 pmol oocyte-1 h-1
500 µM CQ, pH 6.0, 60 min
  E207A transport activity: 7.79 pmol oocyte-1 h-1 and 6.89 pmol oocyte-1 h-1 and 7.81 pmol oocyte-1 h-1 and 10.28 pmol oocyte-1 h-1 and 8.00 pmol oocyte-1 h-1
E207A, 50 µM CQ
  transport activity at pH 6.0 compared with PfCRT^Dd2: 44%
E207A, pH 4.5
  Vmax ± SEM: 11 ± 1 pmol h^−1 oocyte ^−1
  Km: 180 ± 30 µM
E207A, pH 6.0
  Vmax ± SEM: 11 ± 1 pmol h^−1 oocyte ^−1
  Km: 150 ± 30 µM
E207A, 50 µM CQ, 1 h, mean ± SEM
  Activity at pH 6.0: 2.24 ± 0.15 pmol h-1 oocyte-1
E207A, CQ transport at pH 4.5 / pH 6.0
  R-value: 0.9 and 0.89 ± 0.03
pH 4.5, individual replicates (Fig 6a)
  E207A transport activity pH 4.5: 1.64 pmol oocyte-1 h-1 and 1.58 pmol oocyte-1 h-1 and 3.29 pmol oocyte-1 h-1 and 2.17 pmol oocyte-1 h-1 and 2.03 pmol oocyte-1 h-1 and 1.48 pmol oocyte-1 h-1 and 2.30 pmol oocyte-1 h-1 and 1.60 pmol oocyte-1 h-1
pH 4.5, individual replicates, Fig 6b
  E207A transport activity pH 4.5: 1.64 pmol oocyte-1 h-1 and 1.58 pmol oocyte-1 h-1 and 3.29 pmol oocyte-1 h-1 and 2.17 pmol oocyte-1 h-1 and 2.03 pmol oocyte-1 h-1 and 1.48 pmol oocyte-1 h-1 and 2.30 pmol oocyte-1 h-1 and 1.60 pmol oocyte-1 h-1
pH 4.5, single replicates, Fig 1d left
  E207A transport activity pH 4.5: 1.64 pmol oocyte-1 h-1 and 1.58 pmol oocyte-1 h-1 and 3.29 pmol oocyte-1 h-1 and 2.17 pmol oocyte-1 h-1 and 2.03 pmol oocyte-1 h-1 and 1.48 pmol oocyte-1 h-1 and 2.30 pmol oocyte-1 h-1 and 1.60 pmol oocyte-1 h-1
pH 4.5 vs pH 6.0, Fig 1d left
  E207A R-value: 0.81 and 1.04 and 1.03 and 0.85 and 0.93 and 0.99 and 0.74
pH 6.0, individual replicates (Fig 6a)
  E207A transport activity pH 6.0: 2.02 pmol oocyte-1 h-1 and 1.94 pmol oocyte-1 h-1 and 3.16 pmol oocyte-1 h-1 and 2.11 pmol oocyte-1 h-1 and 2.38 pmol oocyte-1 h-1 and 1.75 pmol oocyte-1 h-1 and 2.47 pmol oocyte-1 h-1 and 1.62 pmol oocyte-1 h-1 and 2.39 pmol oocyte-1 h-1
pH 6.0, individual replicates, Fig 6b
  E207A transport activity pH 6.0: 2.02 pmol oocyte-1 h-1 and 1.94 pmol oocyte-1 h-1 and 3.16 pmol oocyte-1 h-1 and 2.11 pmol oocyte-1 h-1 and 2.38 pmol oocyte-1 h-1 and 1.75 pmol oocyte-1 h-1 and 2.47 pmol oocyte-1 h-1 and 1.62 pmol oocyte-1 h-1 and 2.39 pmol oocyte-1 h-1
pH 6.0, single replicates, Fig 1d left
  E207A transport activity pH 6.0: 2.02 pmol oocyte-1 h-1 and 1.94 pmol oocyte-1 h-1 and 3.16 pmol oocyte-1 h-1 and 2.11 pmol oocyte-1 h-1 and 2.38 pmol oocyte-1 h-1 and 1.75 pmol oocyte-1 h-1 and 2.47 pmol oocyte-1 h-1 and 1.62 pmol oocyte-1 h-1 and 2.39 pmol oocyte-1 h-1
Ratio of activity pH 4.5 / pH 6.0
  E207A R-value: 0.81 and 1.04 and 1.03 and 0.85 and 0.93 and 0.99 and 0.74
Transport activity pH 4.5 relative to pH 6.0 (Fig 6a)
  E207A R-value: 0.81 and 1.04 and 1.03 and 0.85 and 0.93 and 0.99 and 0.74
